Key:
Interstitial collagenase = target: T1, Interstitial collagenase (Homo sapiens, UniProt P03956); experiment: Inhibition of matrix metalloprotease-1 (MMP-1)
T1 sequence (P03956 whole entry): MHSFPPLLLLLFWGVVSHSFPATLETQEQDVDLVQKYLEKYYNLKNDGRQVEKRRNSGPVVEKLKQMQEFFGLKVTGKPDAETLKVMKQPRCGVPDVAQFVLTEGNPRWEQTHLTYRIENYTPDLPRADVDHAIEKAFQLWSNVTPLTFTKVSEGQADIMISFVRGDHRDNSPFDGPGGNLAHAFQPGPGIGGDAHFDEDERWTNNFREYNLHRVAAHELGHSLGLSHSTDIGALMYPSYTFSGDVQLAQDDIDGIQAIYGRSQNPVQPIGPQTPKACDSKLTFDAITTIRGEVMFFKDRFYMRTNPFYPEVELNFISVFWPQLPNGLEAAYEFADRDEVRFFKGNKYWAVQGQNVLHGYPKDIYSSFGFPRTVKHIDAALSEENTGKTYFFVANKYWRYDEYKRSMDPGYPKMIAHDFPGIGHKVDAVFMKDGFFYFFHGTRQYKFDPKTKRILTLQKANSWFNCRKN

Mus musculus [1] = experiment: Compound was tested for inhibition of MMP-3 -mediated degradation of radiolabeled transferrin in mouse pleural cavity(PLCAV) at a dose 30 mg/kg administered intravenously.; type: functional; details: route intravenous
Stromelysin-1 = Stromelysin-1 (Homo sapiens, UniProt P08254)
Description: Inhibition of matrix metalloprotease-3 (MMP-3).

[2] = target: 72 kDa type IV collagenase (Homo sapiens, UniProt P08253); experiment: Inhibition of matrix metalloprotease-2 (MMP-2)
Mus musculus [3] = experiment: Compound was tested for inhibition of MMP-3 -mediated degradation of radiolabeled transferrin in mouse pleural cavity(PLCAV) at a dose 100 mg/kg administered perorally.; type: functional; details: route oral

Stromelysin-1, sequence (P08254 whole entry): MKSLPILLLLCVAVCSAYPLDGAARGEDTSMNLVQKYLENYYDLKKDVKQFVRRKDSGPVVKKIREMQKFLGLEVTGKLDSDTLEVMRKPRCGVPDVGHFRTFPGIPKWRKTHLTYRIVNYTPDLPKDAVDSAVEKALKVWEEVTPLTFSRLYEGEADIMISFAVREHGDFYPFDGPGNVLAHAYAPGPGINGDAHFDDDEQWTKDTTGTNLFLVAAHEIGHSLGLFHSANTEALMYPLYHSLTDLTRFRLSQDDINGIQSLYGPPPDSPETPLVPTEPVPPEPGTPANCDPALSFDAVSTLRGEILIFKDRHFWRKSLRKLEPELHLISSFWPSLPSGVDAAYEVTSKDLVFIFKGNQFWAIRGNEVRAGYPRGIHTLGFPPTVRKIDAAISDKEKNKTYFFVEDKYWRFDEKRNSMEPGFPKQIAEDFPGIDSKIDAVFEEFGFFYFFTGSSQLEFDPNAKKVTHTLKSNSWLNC
72 kDa type IV collagenase, sequence (P08253 whole entry): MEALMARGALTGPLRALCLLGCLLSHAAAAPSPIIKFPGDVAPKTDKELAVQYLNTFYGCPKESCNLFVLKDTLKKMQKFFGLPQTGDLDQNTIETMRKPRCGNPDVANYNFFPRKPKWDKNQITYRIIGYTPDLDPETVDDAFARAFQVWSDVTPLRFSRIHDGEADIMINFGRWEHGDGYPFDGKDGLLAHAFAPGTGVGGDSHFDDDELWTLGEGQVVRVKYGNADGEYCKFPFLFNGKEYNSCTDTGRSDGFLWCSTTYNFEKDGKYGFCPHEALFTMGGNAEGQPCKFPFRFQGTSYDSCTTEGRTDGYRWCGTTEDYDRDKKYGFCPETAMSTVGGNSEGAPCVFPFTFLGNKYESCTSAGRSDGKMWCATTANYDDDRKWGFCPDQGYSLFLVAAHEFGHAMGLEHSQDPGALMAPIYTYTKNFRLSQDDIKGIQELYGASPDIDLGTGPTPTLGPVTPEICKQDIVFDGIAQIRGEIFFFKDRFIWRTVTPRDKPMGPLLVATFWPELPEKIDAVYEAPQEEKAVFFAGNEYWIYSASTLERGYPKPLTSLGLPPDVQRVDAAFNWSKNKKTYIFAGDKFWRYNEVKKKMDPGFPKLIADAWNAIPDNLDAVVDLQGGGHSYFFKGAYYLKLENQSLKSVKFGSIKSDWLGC

SMILES	Ki (Interstitial collagenase) [nM]	inhibition in vivo at 30 mg/kg (Mus musculus [1]) [%]	Ki (Stromelysin-1) [nM]	Ki [2] [nM]	ED50 (Mus musculus [3]) [mg/kg]	inhibition in vivo at 100 mg/kg (Mus musculus [3]) [%]
CCCc1ccc(CC[C@H](N[C@H](CCCCN2C(=O)c3ccccc3C2=O)C(=O)O)C(=O)N[C@@H](CC(C)C)C(=O)Nc2ccccc2)cc1	> 10000	89	1.9	2.6	–	–
CC(C)C[C@H](NC(=O)[C@@H](CCC(=O)O)CCc1ccccc1)C(=O)Nc1ccccc1	> 10000	–	5800	> 1000	–	–
CCCc1ccc(CC[C@H](N[C@H](C)C(=O)O)C(=O)N[C@@H](CC(C)C)C(=O)Nc2ccccc2)cc1	–	63	–	–	65	–
CC(C)C[C@H](NC(=O)[C@H](CCc1ccccc1)N[C@H](CCCCN1C(=O)c2ccccc2C1=O)C(=O)O)C(=O)Nc1ccccc1	–	91	–	–	–	1
CCCc1ccc(CC[C@H](C[C@H](CCCCN2Cc3ccccc3C2=O)C(=O)O)C(=O)N[C@@H](CC(C)C)C(=O)Nc2ccccc2)cc1	> 10000	82	0.36	5.7	–	20
CCCc1ccc(CC[C@H](CCC(=O)O)C(=O)N[C@@H](CC(C)C)C(=O)Nc2ccccc2)cc1	> 10000	–	140	220	47	–
CCCc1ccc(CC[C@H](N[C@H](CCCCN2Cc3ccccc3C2=O)C(=O)O)C(=O)N[C@@H](CC(C)C)C(=O)Nc2ccccc2)cc1	1600	81	9.5	110	–	4
CCCc1ccc(CC[C@H](C[C@H](C)C(=O)O)C(=O)N[C@@H](CC(C)C)C(=O)Nc2ccccc2)cc1	> 10000	–	68	310	32	–
CC(C)C[C@H](NC(=O)[C@H](CCc1ccccc1)N[C@H](C)C(=O)O)C(=O)Nc1ccccc1 [L-696418]	770	50	–	–	–	55
CC(C)C[C@H](NC(=O)[C@H](CCc1ccccc1)NCC(=O)O)C(=O)Nc1ccccc1	4620	–	3600	470	–	–
